Data set [1] is described as follows: Pharmacokinetics assay in BALB/C nude mice after intragastrical administration. The format is in vivo. Conditions: female, mouse, plasma, po, 3 mg/kg; for AUC: read-out: Area Under Curve AUC; for CL/F: read-out: Clearance CL/F (converted); for half-life: read-out: Half-Life t½ (converted); for MRT: read-out: Mean Residence Time MRT; for Cmax: read-out: Plasma Conc. Cmax. The protocol:
BALB/C nude mice were used as test animals. The drug concentration in plasma at different time points was determined by LC/MS/MS after intragastrical administration of the compounds of Examples 10, 14, 20, 21, 57, 68, 71, 73, 74, 76 and 89 to BALB/C nude mice. The pharmacokinetic behavior of the compounds of the present invention was studied and evaluated in BALB/C nude mice.
Ninety-nine (99) female BALB/C nude mice were equally divided into 11 groups, which were purchased from SINO-BRITSH SIPPR/BK LAB. ANIMAL LTD., CO, with Certificate No.: SCXK (Shanghai) 2008-0016.
The appropriate amount of each test compound was weighed, and successively added with 9% PEG400+0.5% tween 80+0.5% PVP+90% aqueous solution of 0.5% CMC.
After an overnight fast, 99 female BALB/C nude mice were equally divided into 11 groups, and administered the test compounds intragastrically at an administration volume of 0.2 mL/10 g.
Blood (0.1 mL) was sampled (3 mice at each time point) at 0.5, 1.0, 2.0, 4.0, 6.0, 8.0, 11.0 and 24.0 hours after administration. The samples were stored in heparinized test tubes, and centrifuged for 10 minutes at 3,500 rpm to separate the blood plasma. The plasma samples were stored at −20° C. The plasma concentration of the test compounds in BALB/C nude mice after intragastrical administration was determined by LC/MS/MS.
Pharmacokinetic parameters of the compounds of Examples 10, 14, 20, 21, 57, 68, 71, 73, 74, 76 and 89 of the present invention are shown below.

The test system of a further data set is MCF7 cells. Kind of data set: Inhibition of the proliferation of MCF7 cells (Cell Titer-Glo). The format is cell-based. Particulars: Homo sapiens, MCF-7 cells, 72 hours, read-out: IC50 value of inhibition effect on the proliferation of MCF7 cells. The procedure, abridged: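 Viability by Cell Titer-Glo luminescence; IC50 from signal versus log concentration.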
In general terms: Cellular ATP, detected with luciferase, serves as a proxy for viable cell number.

In the next data set the target is estrogen receptor (ER) (Homo sapiens (Human), UniProt P03372). Description: Inhibition of the binding of estrogen (E) to estrogen receptor (ER), MCF-7/ERE-luciferase reporter cells. The format is cell-based. Conditions: MCF-7/ERE-luciferase cells, 0.1 nM estradiol, 24 hours; read-out: IC50 value of inhibition effect on the binding of E to ER. On the technique in general: A reporter such as luciferase makes a cellular process visible.

Another data set has as its target ERα (Homo sapiens (Human), UniProt P03372). Description: Degradation effect on ERα in MCF-7 cells (ERα Duoset ELISA). The format is cell-based. Conditions: MCF-7 cells; read-out: IC50 value of the degradation effect on ERα. The protocol: In order to determine the degradation effect on ER induced by the compounds of the present invention, the following method was used to determine the degradation effect of the compounds of the present invention on ER.
MCF-7 cell line (TChu 74, Cell Bank of Chinese Academy of Sciences typical culture preservation Committee)
ERα Duoset Kit (#DYC5715E, R&D System)
MCF-7 cells were incubated in DMEM/F-12 medium containing 10% FBS.
On the first day of the experiment, MCF-7 cells were resuspended in DMEM/F-12 medium containing 10% FBS treated by activated carbon, then inoculated into a 48-well plate with a density of 50,000 cells/well and incubated for 22-24 hours.
On the second day of the experiment, the test compound was diluted with medium and added to a 48-well plate. The ERα-capture antibody was diluted to 1 μg/ml with PBS, and added to a 96-well plate at 100 μl/well. The plate was sealed and coated overnight at room temperature.
On the third day of the experiment, the coated 96-well plate was washed twice with PBS, added with a sealing solution (1% BSA in PBS) at 110 μl/well and sealed for 1 hour at room temperature. The 48-well plate was washed once with PBS, and the residual liquid was removed. Then, 60 μl of lysis (6 M urea, 1 mM EDTA, 0.5% Triton X-100, 1 mM PMSF, Protease Inhibitor cocktail) was added to each well. After lysis on ice for 15 minutes, the diluent (1 mM EDTA, 0.5% TritonX-100 dissolved in PBS) was added. The cell-diluted lysate was transferred to a 96-well plate at 100 μl/well, then the plate was incubated at room temperature for 2 hours. The diluted primary antibody was added after the plate was washed 4 times with a washing liquid (PBST). After incubation for 1 hour, the 96-well plate was washed 4 times, and the second antibody was added, then the plate was incubated for 30 minutes. After the plate was washed with a washing liquid, TMB chromogenic solution was added and incubated for 15 minutes. The reaction was stopped by the addition of 1 M H2SO4, then the light absorption at 450 nm was read.
(In general: An ELISA detects its analyte on a solid surface through an enzyme-linked reagent.)

The record followed here is patent US10087191B2, “Piperidine derivative and preparation method and pharmaceutical use thereof” (Jiangsu Hengrui Medicine Co., Ltd., priority 2015, dated 2018).

Chain of ERα (P03372 whole entry): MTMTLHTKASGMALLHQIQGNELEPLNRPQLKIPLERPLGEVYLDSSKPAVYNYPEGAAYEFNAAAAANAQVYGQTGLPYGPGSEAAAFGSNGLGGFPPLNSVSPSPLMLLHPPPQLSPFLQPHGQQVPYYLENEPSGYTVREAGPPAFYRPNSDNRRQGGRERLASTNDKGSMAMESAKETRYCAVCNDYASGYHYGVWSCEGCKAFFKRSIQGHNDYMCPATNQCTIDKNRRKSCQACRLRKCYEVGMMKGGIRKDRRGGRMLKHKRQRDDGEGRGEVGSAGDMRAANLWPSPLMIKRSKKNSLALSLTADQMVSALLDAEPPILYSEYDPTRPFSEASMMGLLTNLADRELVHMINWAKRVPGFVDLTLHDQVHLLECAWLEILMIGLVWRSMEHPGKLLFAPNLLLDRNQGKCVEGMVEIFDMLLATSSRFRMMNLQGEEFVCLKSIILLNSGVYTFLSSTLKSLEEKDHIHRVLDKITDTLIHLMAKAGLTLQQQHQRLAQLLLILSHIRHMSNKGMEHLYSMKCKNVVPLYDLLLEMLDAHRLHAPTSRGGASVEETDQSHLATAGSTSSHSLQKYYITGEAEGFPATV
Chain of estrogen receptor (ER) (P03372 whole entry): as above

Regarding `C[C@@H]1Cc2cc(-c3cnn(C(F)F)c3)ccc2[C@@H](c2c(F)cc(/C=C/C(=O)O)cc2F)N1CC(C)(C)F` [Example 14, (E)-3-(4-((1S,3R)-6-(1-(difluoromethyl)-1H-pyrazol-4-yl)-2-(2-fluoro-2-methylpropyl)-3-methyl-1,2,3,4-tetrahydroisoquinolin-1-yl)-3,5-difluorophenyl)acrylic acid], in data set [1], the AUC (usually concentration integrated over time) was found to be 32700 ng·h/mL; the CL/F was 25.5 mL/min/kg; the half-life (in general, how long it takes for the measured level to halve) was 4.74 h; the MRT (as a rule, the average time that molecules of a dose stay in the body) came to 5.93 h. Besides, in data set [1], the Cmax (as a rule, the peak of the concentration-time curve) was 6750 ng/mL. In addition, the IC50 with MCF7 cells was 60 pM. Moreover, the IC50 at estrogen receptor (ER) was found to be 290 pM. Moreover, at ERα, the DC50 turned out to be 640 pM.
As for `C[C@@H]1Cc2cc(-c3cnn(C)c3)ccc2[C@@H](c2c(F)cc(/C=C/C(=O)O)cc2F)N1CC(C)(C)F` [Example 57, (E)-3-(3,5-difluoro-4-((1S,3R)-2-(2-fluoro-2-methylpropyl)-3-methyl-6-(1-methyl-1H-pyrazol-4-yl)-1,2,3,4-tetrahydroisoquinolin-1-yl)phenyl)acrylic acid], in data set [1], the AUC stood at 15100 ng·h/mL, the CL/F is 55.2 mL/min/kg, the half-life is 2.78 h and the MRT was determined as 3.23 h. The maximum concentration (Cmax) in data set [1] was determined as 5070 ng/mL. Also, the IC50 in the data set on MCF7 cells was 10 pM. Also, on estrogen receptor (ER), the IC50 was 330 pM. For the same molecule, the DC50 at ERα was determined as 100 pM.
Consider `C[C@@H]1Cc2cc(-c3ccc4ncccc4c3)ccc2[C@@H](c2c(F)cc(/C=C/C(=O)O)cc2F)N1CC(C)(C)F` [Example 64, (E)-3-(3,5-difluoro-4-((1S,3R)-2-(2-fluoro-2-methylpropyl)-3-methyl-6-(quinolin-6-yl)-1,2,3,4-tetrahydroisoquinolin-1-yl)phenyl)acrylic acid], for which the results for the IC50 in the data set with MCF7 cells and on estrogen receptor (ER) were 220 pM and 1070 pM, respectively. In addition, at ERα, the DC50 came out at 4720 pM.
In the same order, the values of `CC1Cc2cc(-c3ccc4[nH]ncc4c3)ccc2C(c2c(F)cc(/C=C/C(=O)O)cc2F)N1CC(C)(C)F` [Example 67, (E)-3-(3,5-difluoro-4-((1S,3R/1R,3S)-2-(2-fluoro-2-methylpropyl)-6-(1H-indazol-5-yl)-3-methyl-1,2,3,4-tetrahydroisoquinolin-1-yl)phenyl)acrylic acid] are 70 pM, 5480 pM and 6690 pM.
For the molecule `C[C@@H]1Cc2c(oc3ccccc23)[C@@H](c2c(F)cc(/C=C/C(=O)O)cc2F)N1CC(C)(C)F` [Example 68, (E)-3-(3,5-difluoro-4-((1R,3R)-2-(2-fluoro-2-methylpropyl)-3-methyl-1,2,3,4-tetrahydrobenzofuro[2,3-c]pyridin-1-yl)phenyl)acrylic acid], in data set [1], the AUC was 13200 ng·h/mL, the CL/F was 105 mL/min/kg, the half-life is 2.32 h and the MRT is 3.7 h. Moreover, the Cmax in data set [1] came to 3420 ng/mL. The IC50 in the data set with MCF7 cells worked out at 40 pM. In addition, the IC50 at estrogen receptor (ER) is 310 pM. On ERα, the DC50 stood at 110 pM.
`C[C@@H]1Cc2cc3c(cc2[C@@H](c2c(F)cc(/C=C/C(=O)O)cc2F)N1CC(C)(C)F)OCO3` [Example 71, (E)-3-(3,5-difluoro-4-((5S,7R)-6-(2-fluoro-2-methylpropyl)-7-methyl-5,6,7,8-tetrahydro-[1,3]dioxolo[4,5-g]isoquinolin-5-yl)phenyl)acrylic acid]: in data set [1], the AUC came out at 8810 ng·h/mL, the CL/F is 158 mL/min/kg, the half-life is 1.59 h and the MRT came out at 2.62 h. Also, the peak concentration (Cmax) in data set [1] was determined as 4130 ng/mL. In addition, in the data set on MCF7 cells, the IC50 was 120 pM. Moreover, the IC50 on estrogen receptor (ER) was 740 pM. Moreover, the DC50 at ERα came out at 60 pM.
As to `C[C@@H]1Cc2c(oc3cccc(F)c23)[C@@H](c2c(F)cc(/C=C/C(=O)O)cc2F)N1CC(C)(C)F` [Example 74, (E)-3-(3,5-difluoro-4-((1R,3R)-5-fluoro-2-(2-fluoro-2-methylpropyl)-3-methyl-1,2,3,4-tetrahydrobenzofuro[2,3-c]pyridin-1-yl)phenyl)acrylic acid], in data set [1], the AUC worked out at 5850 ng·h/mL, the CL/F is 142 mL/min/kg, the half-life was 3.16 h and the MRT stood at 2.41 h. Further, the peak concentration (Cmax) in data set [1] is 2530 ng/mL. In the data set on MCF7 cells, the IC50 stood at 90 pM. The IC50 at estrogen receptor (ER) amounted to 210 pM. Moreover, the DC50 at ERα came out at 1350 pM.
Turning to `CC1Cc2cc3ocnc3cc2C(c2c(F)cc(/C=C/C(=O)O)cc2F)N1CC(C)(C)F` [Example 81, (E)-3-(3,5-difluoro-4-((5S,7R/5R,7S)-6-(2-fluoro-2-methylpropyl)-7-methyl-5,6,7,8-tetrahydrooxazolo[5,4-g]isoquinolin-5-yl)phenyl)acrylic acid], the IC50 with MCF7 cells was determined as 3400 pM; on estrogen receptor (ER) it was 4060 pM. Further, the DC50 at ERα was 1620 pM.
On to `CC1Cc2c(oc3cc(F)ccc23)C(c2c(F)cc(/C=C/C(=O)O)cc2F)N1CC(C)(C)F` [Example 86, (E)-3-(3,5-difluoro-4-((1R,3R/1S,3S)-7-fluoro-2-(2-fluoro-2-methylpropyl)-3-methyl-1,2,3,4-tetrahydrobenzofuro[2,3-c]pyridin-1-yl)phenyl)acrylic acid], for which the IC50 with MCF7 cells was 640 pM; on estrogen receptor (ER), 4470 pM. The DC50 at ERα was 7130 pM.
In the same order, the values of `CC1Cc2c(oc3ccc(-c4cn[nH]c4)cc23)C(c2c(F)cc(/C=C/C(=O)O)cc2F)N1CC(C)(C)F` [Example 88, (E)-3-(3,5-difluoro-4-((1R,3R/1S,3S)-2-(2-fluoro-2-methylpropyl)-3-methyl-6-(1H-pyrazol-4-yl)-1,2,3,4-tetrahydrobenzofuro[2,3-c]pyridin-1-yl)phenyl)acrylic acid] are 670 pM, 1220 pM and 1610 pM.
As for `CC1Cc2cc3[nH]ncc3cc2C(c2c(F)cc(/C=C/C(=O)O)cc2F)N1CC(C)(C)F` [Example 91, (E)-3-(3,5-difluoro-4-((5S,7R/5R,7S)-6-(2-fluoro-2-methylpropyl)-7-methyl-5,6,7,8-tetrahydro-1H-pyrazolo[3,4-g]isoquinolin-5-yl)phenyl)acrylic acid], the IC50 was determined as 830 pM in the data set with MCF7 cells and 1880 pM on estrogen receptor (ER). Further, the DC50 at ERα worked out at 2330 pM.
In the case of `C[C@@H]1Cc2c(ccc3[nH]ncc23)[C@@H](c2c(F)cc(/C=C/C(=O)O)cc2F)N1CC(C)(C)F` [Example 94, (E)-3-(3,5-difluoro-4-((6S,8R)-7-(2-fluoro-2-methylpropyl)-8-methyl-6,7,8,9-tetrahydro-3H-pyrazolo[4,3-f]isoquinolin-6-yl)phenyl)acrylic acid], the IC50 with MCF7 cells worked out at 30 pM; at estrogen receptor (ER), 40 pM. Further, the DC50 on ERα came out at 20 pM.
In the same order, the values of `CCn1cc(-c2ccc3oc4c(c3c2)C[C@@H](C)N(CC(C)(C)F)[C@@H]4c2c(F)cc(/C=C/C(=O)O)cc2F)cn1` [Example 97, (E)-3-(4-((1R,3R)-6-(1-ethyl-1H-pyrazol-4-yl)-2-(2-fluoro-2-methylpropyl)-3-methyl-1,2,3,4-tetrahydrobenzofuro[2,3-c]pyridin-1-yl)-3,5-difluorophenyl)acrylic acid] are 200 pM, 240 pM and 6110 pM.
